Assay results reported in ChEMBL document CHEMBL5236632, “Membrane-Active Nonivamide Derivatives as Effective Broad-Spectrum Antimicrobials: Rational Design, Synthesis, and Biological Evaluation” (J Med Chem, 2022).
Converted amounts (≈) assume the structure as drawn. The source made the active and inactive calls. The rule behind the calls is not given here.

Assays:
[1] = Cytotoxicity against mouse NCTC clone 929 cells assessed as cell viability after 24 hrs incubation byCCK-8 assay; type: toxicity, cell-based
Klebsiella pneumoniae [2] = experiment: Antibacterial activity against Klebsiella pneumoniae ATCC 14581 assessed as inhibition of visible growth measured after 18 to 24 hrs by broth dilution method; type: functional; details: time 18-24 hrs
Staphylococcus aureus [3] = experiment: Eradication of biofilm in Staphylococcus aureus ATCC 29213 assessed as biofilm viability at 3.13 ug/ml measured after 24 hrs by crystal violet staining assay; type: functional; details: dose 3.13 µg/ml
Staphylococcus aureus [4] = experiment: Antibacterial activity against Staphylococcus aureus ATCC 29213 assessed as inhibition of visible growth measured after 18 to 24 hrs in presence of 24.3 ug/ml Mg2+ by broth dilution method; type: functional; details: time 18-24 hrs
Staphylococcus aureus [5] = experiment: Antibacterial activity against methicillin-resistant Staphylococcus aureus NCTC 10442 assessed as inhibition of visible growth measured after 18 to 24 hrs in presence of 175.5 ug/ml K+ by broth dilution method; type: functional; details: time 18-24 hrs
Staphylococcus aureus [6] = experiment: Antibacterial activity against Staphylococcus aureus ATCC 29213 assessed as inhibition of visible growth measured after 18 to 24 hrs by broth dilution method; type: functional; details: time 18-24 hrs
Staphylococcus aureus [7] = experiment: Eradication of biofilm in Staphylococcus aureus ATCC 29213 assessed as biofilm viability at 0.39 ug/ml measured after 24 hrs by crystal violet staining assay; type: functional; details: dose 0.39 µg/ml
Pseudomonas aeruginosa = experiment: Antibacterial activity against Pseudomonas aeruginosa ATCC 9027 assessed as inhibition of visible growth measured after 18 to 24 hrs by broth dilution method; type: functional; details: time 18-24 hrs
Klebsiella pneumoniae [8] = experiment: Antibacterial activity against Klebsiella pneumoniae ATCC 10031 assessed as inhibition of visible growth measured after 18 to 24 hrs in presence of 24.3 ug/ml Mg2+ by broth dilution method; type: functional; details: time 18-24 hrs
[9] = Haemolytic activity in rabbit red blood cells incubated for 60 mins by k multi-mode reader relative to control; type: toxicity, cell-based, Oryctolagus cuniculus, Erythrocyte
Escherichia coli [10] = experiment: Antibacterial activity against Escherichia coli ATCC 25922 assessed as bacterial regrowth at 8 time of MIC measured after 24 hrs by time kill assay; type: functional, organism-based
Staphylococcus aureus [11] = experiment: Displacement of BODIPY-TR-cadaverin from Staphylococcus aureus lipoteichoic acid at MIC concentration incubated for 30 mins by fluorescence based analysis
Escherichia coli [12] = experiment: Eradication of biofilm in Escherichia coli ATCC 25922 assessed as biofilm viability at 12.5 ug/ml measured after 24 hrs by crystal violet staining assay; type: functional; details: dose 12.5 µg/ml
Klebsiella pneumoniae [13] = experiment: Antibacterial activity against Klebsiella pneumoniae ATCC 10031 assessed as inhibition of visible growth measured after 18 to 24 hrs in presence of 175.5 ug/ml K+ by broth dilution method; type: functional; details: time 18-24 hrs
Escherichia coli [14] = experiment: Antibacterial activity against Escherichia coli […] assessed as inhibition of visible growth measured after 18 to 24 hrs in presence of 100 ug/ml Ca2+ by broth dilution method; type: functional; details: time 18-24 hrs
Staphylococcus aureus [15] = experiment: Antibacterial activity against Staphylococcus aureus ATCC 29213 assessed as inhibition of visible growth measured after 18 to 24 hrs in presence of 100 ug/ml Ca2+ by broth dilution method; type: functional; details: time 18-24 hrs
Staphylococcus aureus [16] = experiment: Antibacterial activity against methicillin-resistant Staphylococcus aureus N315 assessed as inhibition of visible growth measured after 18 to 24 hrs in presence of 175.5 ug/ml K+ by broth dilution method; type: functional; details: time 18-24 hrs
Staphylococcus aureus [17] = experiment: Antibacterial activity against Staphylococcus aureus ATCC 29213 assessed as inhibition of visible growth measured after 18 to 24 hrs in presence of 3220 ug/ml Na+ by broth dilution method; type: functional; details: time 18-24 hrs
Escherichia coli [18] = experiment: Antibacterial activity against Escherichia coli ATCC 25922 assessed as inhibition of visible growth measured after 18 to 24 hrs by broth dilution method; type: functional; details: time 18-24 hrs
Staphylococcus aureus [19] = experiment: Antibacterial activity against methicillin-resistant Staphylococcus aureus NCTC 10442 assessed as inhibition of visible growth measured after 18 to 24 hrs in presence of 24.3 ug/ml Mg2+ by broth dilution method; type: functional; details: time 18-24 hrs
[20] = Selectivity ratio, HC50 for hemolytic activity in rabbit RBC to MIC for antibacterial activity against Acinetobacter baumannii ATCC 17978; type: toxicity; details: rabbit red blood cells
[21] = Selectivity ratio, HC50 for hemolytic activity in rabbit RBC to MIC for antibacterial activity against Staphylococcus aureus ATCC 29213; type: toxicity; details: rabbit red blood cells
Staphylococcus aureus [22] = experiment: Eradication of biofilm in Staphylococcus aureus ATCC 29213 assessed as biofilm viability at […] ug/ml measured after 24 hrs by crystal violet staining assay; type: functional; details: dose […] microg/ml, 1.56 ug/mL
Staphylococcus aureus [23] = experiment: Antibacterial activity against Staphylococcus aureus ATCC 29213 assessed as inhibition of visible growth measured after 18 to 24 hrs in presence of 175.5 ug/ml K+ by broth dilution method; type: functional; details: time 18-24 hrs
Escherichia coli [24] = experiment: Inhibition of biofilm formation Escherichia coli ATCC 25922 assessed as decrease in biofilm formation at 6.25 ug/ml measured after 24 hrs by crystal violet staining assay; type: functional
Escherichia coli [25] = experiment: Antibacterial activity against Escherichia coli […] assessed as inhibition of visible growth measured after 18 to 24 hrs in presence of 24.3 ug/ml Mg2+ by broth dilution method; type: functional; details: time 18-24 hrs
[26] = Toxicity in C57BL/6 mouse cornea assessed as corneal damage at 5 mg/ml treated topically; type: tissue-based; details: in vivo, topical_or_ocular, route top
[27] = Toxicity in C57BL/6 mouse cornea assessed as toxicity at 5 mg/ml treated topically; type: tissue-based; details: in vivo, topical_or_ocular, route top
Staphylococcus aureus [28] = experiment: Antibacterial activity against Staphylococcus aureus ATCC 29213 assessed as reduction in bacterial load at 8 time of MIC measured after 8 hrs by time kill assay; type: functional
Staphylococcus aureus [29] = experiment: Inhibition of biofilm formation Staphylococcus aureus ATCC 29213 assessed as decrease in biofilm formation at 0.10 ug/ml measured after 24 hrs by crystal violet staining assay; type: functional
Staphylococcus aureus [30] = experiment: Eradication of biofilm in Staphylococcus aureus ATCC 29213 assessed as biofilm viability at 0.20 ug/ml measured after 24 hrs by crystal violet staining assay; type: functional; details: dose 0.2 µg/ml
Escherichia coli [31] = experiment: Drug resistance development in Escherichia coli ATCC 25922 assessed as fold change in MIC measured after 20 passages; type: functional
Staphylococcus aureus [32] = experiment: Eradication of biofilm in Staphylococcus aureus ATCC 29213 assessed as biofilm viability at 0.78 ug/ml measured after 24 hrs by crystal violet staining assay; type: functional; details: dose 0.78 µg/ml
Acinetobacter baumannii = experiment: Antibacterial activity against Acinetobacter baumannii ATCC 17978 assessed as inhibition of visible growth measured after 18 to 24 hrs by broth dilution method; type: functional; details: time 18-24 hrs
Cell membrane = experiment: Induction of membrane depolarization in Staphylococcus aureus ATCC 29213 assessed as increase in fluorescence intensity at 4 to 8 times MIC measured for 60 mins by DiSC3(5) dye based fluorescence method; type: subcellular
Staphylococcus aureus [33] = experiment: Antibacterial activity against methicillin-resistant Staphylococcus aureus N315 assessed as inhibition of visible growth measured after 18 to 24 hrs in presence of 100 ug/ml Ca2+ by broth dilution method; type: functional; details: time 18-24 hrs

Q: For `CCCCCCCCC(=O)NCc1ccc(OCCCCCCNC(=N)N)c(OCCCCCCNC(=N)N)c1`, which CC50 at 24 h [1] is on record?
A: Its CC50 at 24 h is 35.2 mg/L (≈ 62.7 µM).

Q: What about the MIC (Klebsiella pneumoniae [2]) of the same molecule?
A: The MIC was 1.56 mg/L (≈ 2.78 µM).

Q: And the Activity (Staphylococcus aureus [3])?
A: The Activity was 14%.

Q: What about the MIC (Staphylococcus aureus [4]) of the same molecule?
A: Its MIC is 0.39 mg/L.

Q: And the MIC (Staphylococcus aureus [5])?
A: The MIC was 0.39 mg/L.

Q: And the MIC (Staphylococcus aureus [6])?
A: Its MIC is 0.78 mg/L (≈ 1.39 µM).

Q: What about the Activity (Staphylococcus aureus [7]) of the same molecule?
A: The Activity was 73.22%.

Q: And the MIC (Pseudomonas aeruginosa)?
A: The MIC was 6.25 mg/L (≈ 11.1 µM).

Q: And the MIC (Klebsiella pneumoniae [8])?
A: The MIC was 1.56 mg/L.

Q: And the HC5 ([9]; erythrocyte, 1 h)?
A: Its HC5 is 64.3 µg/mL.

Q: What about the HC50 at 1 h ([9]; rabbit red blood cells) of the same molecule?
A: Its HC50 at 1 h is 135 µg/mL.

Q: And the Activity (Escherichia coli [10])?
A: The Activity was “Active”.

Q: And the Activity (Staphylococcus aureus [11])?
A: Its Activity is 10.2%.

Q: What about the Activity (Escherichia coli [12]) of the same molecule?
A: The Activity was 15.04%.

Q: And the MIC (Klebsiella pneumoniae [13])?
A: Its MIC is 0.78 mg/L.

Q: What about the MIC (Escherichia coli [14]) of the same molecule?
A: Its MIC is 3.12 mg/L.

Q: And the MIC (Staphylococcus aureus [15])?
A: Its MIC is 0.39 mg/L.

Q: What about the MIC (Staphylococcus aureus [16]) of the same molecule?
A: The MIC was 0.39 mg/L.

Q: What about the MIC (Staphylococcus aureus [17]) of the same molecule?
A: Its MIC is 0.39 mg/L.

Q: What about the MIC (Escherichia coli [18]) of the same molecule?
A: The MIC was 1.56 mg/L (≈ 2.78 µM).

Q: What about the MIC (Staphylococcus aureus [19]) of the same molecule?
A: The MIC was 0.39 mg/L.

Q: What about the selectivity ratio [20] of the same molecule?
A: Its selectivity ratio is 21.6.

Q: What about the selectivity ratio [21] of the same molecule?
A: Its selectivity ratio is 173.

Q: What about the Activity (Staphylococcus aureus [22]) of the same molecule?
A: The Activity was 36.07%.

Q: What about the MIC (Staphylococcus aureus [23]) of the same molecule?
A: Its MIC is 0.39 mg/L.

Q: And the inhibition at 6.25 µg/mL (Escherichia coli [24])?
A: Its inhibition at 6.25 µg/mL is 109%.

Q: And the MIC (Escherichia coli [25])?
A: The MIC was 1.56 mg/L.

Q: And the Activity [26]?
A: The Activity was “Non-Toxic”.

Q: What about the Activity [27] of the same molecule?
A: The Activity was “Non-Toxic”.

Q: And the Activity (Staphylococcus aureus [28])?
A: The Activity was 3.59 log10CFU/ml.

Q: And the inhibition at 0.1 µg/mL (Staphylococcus aureus [29])?
A: Its inhibition at 0.1 µg/mL is 34.1%.

Q: And the Activity (Staphylococcus aureus [30])?
A: The Activity was 87.32%.

Q: What about the “fold change (FC)” value (Escherichia coli [31]) of the same molecule?
A: Its value is <4.

Q: What about the Activity (Staphylococcus aureus [32]) of the same molecule?
A: The Activity was 64.77%.

Q: What about the MIC (Acinetobacter baumannii) of the same molecule?
A: The MIC was 3.12 mg/L (≈ 5.56 µM).

Q: And the Activity (Cell membrane)?
A: Its Activity is “Active”.

Q: And the MIC (Staphylococcus aureus [33])?
A: The MIC was 0.39 mg/L.
